How the values were obtained:
[1] = biological target: biotinylated FKBP, FLAG FRB protein and everolimus; test: AlphaLISA direct binding assay, FLAG FRB proteins with biotinylated FKBP and titrated everolimus; settings: everolimus serial diluted from 600 nM; 30 nM biotinylated FKBP and each FLAG FRB protein
Procedure: FRB mutations were also ranked in an alternative assay format. Briefly, FRB proteins incorporating single and double mutations (SEQ ID NO: 319-323) were produced as FLAG tagged constructs in E. coli as described previously. 30 nM (final) of biotinylated FKBP (SEQ ID NO: 324) and each FLAG FRB protein were combined in the presence of everolimus serial diluted 1:3 from a starting final concentration of 600 nM into a 96 well ½ surface flat-bottom plate (PerkinElmer) and incubated for one hour at room temperature. All dilutions were made in 1× AlphaLISA Immunoassay buffer (PerkinElmer). Anti-Flag acceptor beads (PerkinElmer) were added at 10ug/ml final concentration and incubated for one hour at room temperature. Streptavidin donor beads (PerkinElmer), were then added at a final concentration of 40ug/ml and the plate was protected from light and incubated for 30 minutes at room temperature. The plate was then read on the PerkinElmer EnVision Multiplate reader equipped with the Alpha Module using excitation of 680 nm and a 570 nm Emission filter.

JNL cells = test: Single vector CD19 RCAR constructs in JNL cells, NFAT reporter activation by dimerization molecule; assay type: cell-based; settings: nM to sub-nM doses
Description: The constructs and viral particles were made and tested essentially as described in Example 11. Viral particles were introduced into JNL cells and evaluated for activity essentially as described in Example 1 except that the target was CD19 (as opposed to EGFRviii).
Construct 143775 was introduced into cells and the affect of dimerization molecule concentration on activation evaluated essentially as described in Example 14.

[2] = tested on: Jurkat cells with NFAT-LUC reporter (JNL); test: Activation assay of redirected inhibitory RCAR (PD1 RCAR, FRB-FKBP switch) on PDL1-Fc; assay type: cell-based
Procedure: Jurkat cells with NFAT-LUC reporter (JNL) were grown to the density of 0.5×10^6/ml in Jurkat cell growth media with puromycin at 0.5 μg/ml. For each transfection 3×10^6 cells were spin down at 100 g for 10 minutes. Four μg DNA per construct were used per transfection. Amaxa Nucleofector solution V and supplement I was mixed and 100 μl was added into the tube with DNA construct. The mixture was then added to the cells and transferred to the electroporation cuvette. Electroporation was done under setting X-001 using Amaxa Nucleofector II Device. 0.5 ml of growth media was added immediately after electroporation and the mixture were transferred into 2 ml growth media in one well of the 6-well plate. After two hours, the rapalogue compound at various concentrations was added to cells. The cells were applied to tissue culture plate wells that were coated by the target. Tissue culture plate was coated with 5 μg/ml of PDL1-Fc or IgG1-Fc or any target for 2 hrs at 37° C., then blocked with the blocking buffer (DPBS with 5% serum) for 30 minutes. The transfected cells were added to the target plate with 100 μl per well and incubated further for 16 hrs. Luciferase One Glo reagent 100 μl was added per well. The samples were incubated for 5 min at 37° C. and then luminescence is measured using Envision plate reader. […]

PI3K/mTOR = settings: relatively higher concentrations; cited from earlier work
mTOR = mTOR (Homo sapiens, UniProt P42345); settings: low concentration; cited from earlier work
[3] = tested on: Jurkat cells with NFAT-LUC reporter (JNL); test: NFAT activation assay, 9E10 anti-myc scFv RCAR with c-myc peptide multimers; assay type: cell-based; settings: myc tags at 100 nM, 18 hr; compared with lower multimers
Procedure: Jurkat cells with NFAT-LUC reporter (JNL) were grown to the density of 0.5×10^6/ml in Jurkat cell growth media with puromycin at 0.5 μg/ml. For each transfection 2.5×10^6 cells were spin down at 100 g for 10 minutes. Two μg of DNA per construct were used per transfection. Amaxa Nucleofector solution V and supplement I was mixed and 100 μl was added into the tube with DNA construct. The mixture was then added to the cells and transferred to the electroporation cuvette. Electroporation was done under setting X-001 using Amaxa Nucleofector II Device. 0.5 ml of growth media was added immediately after electroporation and the mixture were transferred into 2 ml growth media in one well of the 6-well plate and incubated for two hours. For myc tags in solution, the cells were distributed into 96-wells, monomer, dimer, trimer or tetramer myc tags or IgG1 Fc were applied at 100 nM. The cells were incubated for 18 hr. Alternatively, tissue culture plate was coated with 100 nM of various myc tags or IgG1 Fc for two hours, blocked with the blocking buffer (DPBS with 5% serum) for 1 hour. The transfected cells were added to the target plate with 100 μl per well and incubated for 18 hrs. Luciferase One Glo reagent 100 μl was added per well. The samples were incubated for 5 min at 37° C. and then luminescence is measured using Envision plate reader.

For “T2098L: FRB point mutant; SEQ ID NO: 315 (competition assay), SEQ ID NO: 321 (direct binding assay)”, the EC50 [1] was 1.44 nM.

“E2032I: FRB point mutant; SEQ ID NO: 313 (competition assay), SEQ ID NO: 319 (direct binding assay)” gave an EC50 [1] of 2.46 nM.

For `CO[C@H]1C[C@@H]2CC[C@@H](C)[C@@](O)(O2)C(=O)C(=O)N2CCCC[C@H]2C(=O)O[C@H]([C@H](C)C[C@@H]2CC[C@@H](O)[C@H](OC)C2)CC(=O)[C@H](C)/C=C(\C)[C@@H](O)[C@@H](OC)C(=O)[C@H](C)C[C@H](C)/C=C/C=C/C=C/1C` [rapamycin], the “activation of RCAR (Construct 143775) over dimerization molecule concentration” value (JNL cells) was “effective at a broad range of concentrations”.

With `CO[C@H]1[C@@H](O)[C@H](C)C[C@H](C)/C=C/C=C/C=C(\C)[C@@H](c2c[nH]c3c(C)cccc23)C[C@@H]2CC[C@@H](C)[C@@](O)(O2)C(=O)C(=O)N2CCCC[C@H]2C(=O)O[C@H]([C@H](C)C[C@@H]2CC[C@@H](O)[C@H](OC)C2)C[C@H](O)[C@H](C)/C=C(\C)[C@H]1O` [AP21967] the “induction of NFAT signaling by PDL-1 target” value ([2]; PD1 RCAR (PD1-ECD-TM-FRB and FKBP-4 1BB-CD3 zeta), 500 nM AP21967) was “significant induction of signaling” and the “potency in inducing dimerization of the heterodimerization switch, activation of NFAT signaling” value ([2]; PD1 RCAR, varying concentrations of AP21967, dose response) was “potent even at sub nM concentration”.

“E2032L: FRB point mutant; SEQ ID NO: 314 (competition assay), SEQ ID NO: 320 (direct binding assay)” gave an EC50 [1] of 2.15 nM.

Work on “Wild type FRB: His-FRB SEQ ID NO: 312 in competition assay; His-FLAG-FRB SEQ ID NO: 318 in direct binding assay” yielded an EC50 [1] of 3.9 nM.

In the case of `Cn1c(=O)n(-c2ccc(C(C)(C)C#N)cc2)c2c3cc(-c4cnc5ccccc5c4)ccc3ncc21` [BEZ235, 2-methyl-2-[4-(3-methyl-2-oxo-8-quinolin-3-yl-2,3-dihydro-imidazo[4,5-c]quinolin-1-yl)-phenyl]-propionitrile], the “concentration of dual PI3K/mTOR inhibition” value (PI3K/mTOR) is listed as “approximately 500 nmol/L” and the “concentration at which mTOR inhibition predominates” value (mTOR) is listed as “less than 100 nmol/L”.

B1: EEQKLISEEDLGGGGSGGGGSGGGGSEEQKLISEEDLGGGGSGGGGSGGGGSEEQKLISEEDLGGGGSGGGGSGGGGSEEQKLISEEDL (peptide)
chain: EEQKLISEEDLGGGGSGGGGSGGGGSEEQKLISEEDLGGGGSGGGGSGGGGSEEQKLISEEDLGGGGSGGGGSGGGGSEEQKLISEEDL
With B1 the “NFAT activation by myc tag multimers” value [3] was “Higher NFAT activation”.

B2: EEQKLISEEDLGGGGSGGGGSGGGGSEEQKLISEEDLGGGGSGGGGSGGGGSEEQKLISEEDL (peptide)
chain: EEQKLISEEDLGGGGSGGGGSGGGGSEEQKLISEEDLGGGGSGGGGSGGGGSEEQKLISEEDL
In the case of B2, the “NFAT activation by myc tag multimers” value [3] is reported as “Higher NFAT activation”.
